Assay [1] has as its system Mus musculus. Description: Tested for antiTrypanosomal activity against Trypanosoma rhodesiense in mice at dose of 40 mg/kg expressed as mean survival time (MST) or cures. The assay is classed as functional.
For assay [2], the system named is Mus musculus. Briefly: Tested for antiTrypanosomal activity against Trypanosoma rhodesiense in mice at dose of 160 mg/kg expressed as mean survival time (MST) or cures. The assay is classed as functional.
Assay [3] deals with Mus musculus. Description: Tested for antiTrypanosomal activity against Trypanosoma rhodesiense in mice at dose of 320 mg/kg expressed as mean survival time (MST) or cures. The assay is classed as functional.
Assay [4] has as its system Mus musculus. Briefly: Tested for antiTrypanosomal activity against Trypanosoma rhodesiense in mice at dose of 80 mg/kg expressed as mean survival time (MST) or cures. The class given is functional.
Assay [5] has as its system Mus musculus. Briefly: Tested for antiTrypanosomal activity against Trypanosoma rhodesiense in mice at dose of 2.5 mg/kg expressed as mean survival time (MST) or cures. The assay is classed as functional.
The test system of assay [6] is Mus musculus. Description: Tested for antiTrypanosomal activity against Trypanosoma rhodesiense in mice at dose of 20 mg/kg expressed as mean survival time (MST) or cures. The class given is functional.
Assay [7] relates to Mus musculus. Description: Tested for antiTrypanosomal activity against Trypanosoma rhodesiense in mice at dose of 1.25 mg/kg expressed as mean survival time (MST) or cures. The assay is classed as functional.
The subject of assay [8] is Mus musculus. Briefly: Tested for antiTrypanosomal activity against Trypanosoma rhodesiense in mice at dose of 5 mg/kg expressed as mean survival time (MST) or cures. The assay is classed as functional.
In assay [9] the test system is Mus musculus. Description: Tested for antiTrypanosomal activity against Trypanosoma rhodesiense in mice at dose of 640 mg/kg expressed as mean survival time (MST) or cures. The assay is classed as functional.
Assay [10] concerns Mus musculus. Briefly: Tested for antiTrypanosomal activity against Trypanosoma rhodesiense in mice at dose of 10 mg/kg expressed as mean survival time (MST) or cures. The assay is classed as functional.
Assay [11] deals with Mus musculus. Briefly: Tested for antiTrypanosomal activity against Trypanosoma rhodesiense in mice at dose of 106 mg/kg expressed as mean survival time (MST) or cures T - toxic death. The class given is functional, organism-based. Set-up: dose 106 mg/kg.
Assay [12] has as its system Mus musculus. Briefly: Tested for antiTrypanosomal activity against Trypanosoma rhodesiense in mice at dose of 26.5 mg/kg expressed as mean survival time (MST) or cures T - toxic death. The class given is functional, organism-based. Set-up: dose 26.5 mg/kg.
Assay [13] concerns Mus musculus. Description: Tested for antiTrypanosomal activity against Trypanosoma rhodesiense in mice at dose of 424 mg/kg expressed as mean survival time (MST) or cures T - toxic death. The class given is functional, organism-based. The arrangement: dose 424 mg/kg.
Assay [14] deals with Mus musculus. Description: Tested for antiTrypanosomal activity against Trypanosoma rhodesiense in mice at dose of 6.6 mg/kg expressed as mean survival time (MST) or cures. The class given is functional.
Assay [15] concerns Mus musculus. Description: Tested for antiTrypanosomal activity against Trypanosoma rhodesiense in mice at dose of 13.3 mg/kg expressed as mean survival time (MST) or cures. The class given is functional.
Assay [16] has as its system Mus musculus. Description: Tested for antiTrypanosomal activity against Trypanosoma rhodesiense in mice at dose of 26.5 mg/kg expressed as mean survival time (MST) or cures. The assay is classed as functional.
The test system of assay [17] is Mus musculus. Description: Tested for antiTrypanosomal activity against Trypanosoma rhodesiense in mice at dose of 640 mg/kg expressed as mean survival time (MST) or cures, T - toxic death. The assay is classed as functional, organism-based. The arrangement: dose 640 mg/kg.
In assay [18] the test system is Mus musculus. Briefly: Tested for antiTrypanosomal activity against Trypanosoma rhodesiense in mice at dose of 212 mg/kg expressed as mean survival time (MST) or cures. The class given is functional.
For assay [19], the system named is Mus musculus. Description: Tested for antiTrypanosomal activity against Trypanosoma rhodesiense in mice at dose of 53 mg/kg expressed as mean survival time (MST) or cures. The class given is functional.
In assay [20] the test system is Mus musculus. Briefly: Tested for antiTrypanosomal activity by screening against Trypanosoma rhodesiense in mice at dose of 424 mg/kg expressed as mean survival time (MST) or cures T - toxic death. The assay is classed as functional, organism-based. The arrangement: dose 424 mg/kg.
Assay [21] has as its system Mus musculus. Description: Tested for antiTrypanosomal activity against Trypanosoma rhodesiense in mice at dose of 106 mg/kg expressed as mean survival time (MST) or cures. The assay is classed as functional.
Assay [22] deals with Mus musculus. Description: Tested for antitrypanosomal activity against trypanosoma rhodesiense in mice at dose of 424 mg/kg expressed as mean survival time (MST) or cures. The class given is functional.
Assay [23] deals with Mus musculus. Description: Tested for antiTrypanosomal activity against Trypanosoma rhodesiense in mice at dose of 160 mg/kg expressed as mean survival time (MST) or cures T - toxic death. The assay is classed as functional, organism-based. The arrangement: dose 160 mg/kg.
The test system of assay [24] is Mus musculus. Briefly: Tested for antiTrypanosomal activity against Trypanosoma rhodesiense in mice at dose of 320 mg/kg expressed as mean survival time (MST) or cures T - toxic death. The assay is classed as functional, organism-based. Set-up: dose 320 mg/kg.
For assay [25], the system named is Mus musculus. Briefly: Tested for antitrypanosomal activity against trypanosoma rhodesiense in mice at dose of 53 mg/kg expressed as mean survival time (MST) or cures. The class given is functional.
Assay [26] concerns Mus musculus. Description: Tested for antiTrypanosomal activity against Trypanosoma rhodesiense in mice at dose of 3.3 mg/kg expressed as mean survival time (MST) or cures. The assay is classed as functional.

We go through 16 molecules from ChEMBL document CHEMBL1121442, “Synthesis and antitrypanosomal activity of some bis(4-guanylphenyl) five- and six-membered ring heterocycles” (1980).

As for `N=C(Nc1ccc(NC(=N)c2ccccc2)o1)c1ccccc1`, the Cures is 5 in the assay with Mus musculus [1]; 5 in the assay with Mus musculus [2]; 5 in the assay with Mus musculus [3]; 5 in the assay with Mus musculus [4]; 4 with Mus musculus [5]; 5 in the assay with Mus musculus [6]. Further, the Cures in the assay on Mus musculus [7] amounted to 4; in the assay with Mus musculus [8], 5; in the assay on Mus musculus [9], 5; in the assay with Mus musculus [10], 5.
For the molecule `Cl.Cl.c1cc(-c2nnc(-c3ccc(C4=NCCCN4)cc3)s2)ccc1C1=NCCCN1`, the “Delta MST” value is “Toxic death” with Mus musculus [11], 1.1 days in the assay on Mus musculus [1], “Toxic death” in the assay on Mus musculus [12] and “Toxic death” with Mus musculus [13].
Regarding `Cl.Cl.c1cc(-c2nnc(-c3ccc(C4=NCCCN4)cc3)o2)ccc1C1=NCCCN1`, the entries for the “Delta MST” value in the assay on Mus musculus [11], in the assay on Mus musculus [13] and in the assay on Mus musculus [14] were “Toxic death”, “Toxic death” and 1.3 days, respectively. Also, the Cures in the assay with Mus musculus [15] was determined as 1; in the assay with Mus musculus [16] it was 5.
For the molecule `Cl.Cl.c1cc(-c2nnc(-c3ccc(C4=NCCN4)cc3)o2)ccc1C1=NCCN1`, the results for the “Delta MST” value in the assay with Mus musculus [17], in the assay on Mus musculus [1] and in the assay on Mus musculus [2] were “Toxic death”, 0.8 days and 1 days, respectively.
In the case of `N=C(N)c1ccc(/C=C/c2ccc(C(=N)N)cc2O)cc1` [HYDROXYSTILBAMIDINE], the Cures with Mus musculus [1], in the assay with Mus musculus [2], in the assay on Mus musculus [3], with Mus musculus [4], with Mus musculus [5] and in the assay with Mus musculus [6] was 5 each time. Also, the Cures was 2 in the assay on Mus musculus [7], 5 with Mus musculus [8], 5 with Mus musculus [9] and 5 with Mus musculus [10].
As to `CC1CNC(c2ccc(-c3cnc(-c4ccc(C5=NC(C)CN5)cc4)o3)cc2)=N1.Cl.Cl` (configuration not stated), the “Delta MST” value was 6.8 days with Mus musculus [18]; 2.4 days in the assay on Mus musculus [19]; “Toxic death” in the assay on Mus musculus [20]; 5.2 days with Mus musculus [21]; 1 days in the assay on Mus musculus [15]; 2.2 days with Mus musculus [16].
Consider `Cl.Cl.c1cc(-c2cnc(-c3ccc(C4=NCCN4)cc3)o2)ccc1C1=NCCN1`, for which the “Delta MST” value with Mus musculus [21] came out at 0.4 days; in the assay with Mus musculus [16], 0.2 days; in the assay with Mus musculus [22], 1.6 days.
Regarding `N=C(N)c1ccc(/C=C/c2ccc(C(=N)N)cc2)cc1` [STILBAMIDINE], the Cures in the assay on Mus musculus [1], in the assay with Mus musculus [2], in the assay on Mus musculus [3], with Mus musculus [4], in the assay with Mus musculus [5] and with Mus musculus [6] was 5 throughout. Moreover, the Cures in the assay with Mus musculus [7] was found to be 2; in the assay on Mus musculus [8] it was 5; in the assay on Mus musculus [9] it was 5; in the assay with Mus musculus [10], 5.
Regarding `Cl.Cl.N=C(N)c1ccc(-c2nnc(-c3ccc(C(=N)N)cc3)o2)cc1`, the results for the “Delta MST” value in the assay with Mus musculus [17], in the assay on Mus musculus [1] and in the assay on Mus musculus [2] were “Toxic death”, 0.8 days and 0.8 days, respectively.
For `Cl.Cl.c1cc(-c2ccc(-c3ccc(C4=NCCCN4)cc3)nn2)ccc1C1=NCCCN1`, the “Delta MST” value with Mus musculus [11] was “Toxic death”. The Cures in the assay on Mus musculus [1] came to 4; in the assay with Mus musculus [4], 1; in the assay with Mus musculus [6], 4; with Mus musculus [10], 1.
Regarding `CC1CNC(c2ccc(-c3nnc(-c4ccc(C5=NC(C)CN5)cc4)o3)cc2)=N1` (configuration not stated), the “Delta MST” value with Mus musculus [11], in the assay on Mus musculus [12] and in the assay with Mus musculus [13] was “Toxic death” each time.
Turning to `Cl.Cl.c1cc(-c2cnc(-c3ccc(C4=NCCCN4)cc3)o2)ccc1C1=NCCCN1`, the “Delta MST” value is “Toxic death” with Mus musculus [17], “Toxic death” in the assay with Mus musculus [23], 2.7 days with Mus musculus [7] and “Toxic death” in the assay with Mus musculus [24]. For the same molecule, the Cures is 5 in the assay on Mus musculus [1]; 2 with Mus musculus [4]; 3 with Mus musculus [5]; 5 in the assay on Mus musculus [6]; 3 in the assay on Mus musculus [8]; 5 in the assay on Mus musculus [10].
For the molecule `Cl.Cl.N=C(N)c1ccc(-c2cnc(-c3ccc(C(=N)N)cc3)o2)cc1`, the Cures amounted to 5 in the assay with Mus musculus [1]; 5 in the assay with Mus musculus [2]; 5 in the assay with Mus musculus [3]; 5 in the assay with Mus musculus [4]; 3 with Mus musculus [5]; 5 in the assay on Mus musculus [6]. Besides, the Cures in the assay on Mus musculus [8], in the assay with Mus musculus [9] and in the assay with Mus musculus [10] was 5 each time. The “Delta MST” value in the assay on Mus musculus [7] is 1.8 days.
Regarding `N=C(N)c1ccc(OCCCCCOc2ccc(C(=N)N)cc2)cc1` [PENTAMIDINE], the Cures with Mus musculus [1] is recorded as 5; in the assay on Mus musculus [2], 5; with Mus musculus [3], 5; in the assay on Mus musculus [4], 5; with Mus musculus [5], 4; in the assay on Mus musculus [6], 5. For the same molecule, the Cures with Mus musculus [7] was determined as 1; in the assay with Mus musculus [8], 5; with Mus musculus [9], 5; in the assay on Mus musculus [10], 5.
Take `Cl.Cl.N=C(N)c1ccc(-c2nnc(-c3ccc(C(=N)N)cc3)s2)cc1`: the Cures was found to be 5 in the assay on Mus musculus [18]; 5 with Mus musculus [25]; 4 in the assay on Mus musculus [14]; 3 in the assay with Mus musculus [26]; 5 with Mus musculus [21]; 5 with Mus musculus [15]. The Cures with Mus musculus [16] is 5; in the assay with Mus musculus [22], 2. In addition, the “Delta MST” value in the assay on Mus musculus [7] is 2 days.
As to `Cl.Cl.c1cc(-c2ccc(-c3ccc(C4=NCCN4)cc3)nn2)ccc1C1=NCCN1`, the “Delta MST” value with Mus musculus [1] worked out at 1.1 days; in the assay with Mus musculus [6] it was 1.1 days; in the assay on Mus musculus [10], 0.3 days. The Cures was 3 in the assay with Mus musculus [2], 5 with Mus musculus [3] and 1 in the assay with Mus musculus [4].
